How the values were obtained:
[1] = tested on: TGF-β-stimulated SMAD3 phosphorylation in BEAS-2B cells; experiment: Cellular ALK5 potency assay, inhibition of TGF-β stimulated pSMAD3 formation in BEAS-2B cells; type: cell-based; conditions: Homo sapiens, pSMAD3, TGF-β 10 ng/mL, read-out: BEAS2B pIC50 (converted)
Method in brief: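 Human lung epithelial BEAS-2B cells were preincubated 1 h at 37 °C with compound in HBSS/HEPES/1% BSA, then stimulated 30 min with 10 ng/mL TGF-β. pSMAD3 in lysates was quantified by AlphaLISA relative to untreated stimulated cells; reported as pIC50.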

[2] = target: T1, recombinant human ALK5 (TGF-βR1) protein (Homo sapiens, UniProt P36897); experiment: Biochemical ALK5 (TGF-βR1) assay to measure pKi (LANCE Ultra ULight kinase assay); conditions: apparent pKi, converted from pIC50 by Cheng-Prusoff
T1 construct: purchased Life Technologies PR9075A
T1 sequence (P36897 34-503): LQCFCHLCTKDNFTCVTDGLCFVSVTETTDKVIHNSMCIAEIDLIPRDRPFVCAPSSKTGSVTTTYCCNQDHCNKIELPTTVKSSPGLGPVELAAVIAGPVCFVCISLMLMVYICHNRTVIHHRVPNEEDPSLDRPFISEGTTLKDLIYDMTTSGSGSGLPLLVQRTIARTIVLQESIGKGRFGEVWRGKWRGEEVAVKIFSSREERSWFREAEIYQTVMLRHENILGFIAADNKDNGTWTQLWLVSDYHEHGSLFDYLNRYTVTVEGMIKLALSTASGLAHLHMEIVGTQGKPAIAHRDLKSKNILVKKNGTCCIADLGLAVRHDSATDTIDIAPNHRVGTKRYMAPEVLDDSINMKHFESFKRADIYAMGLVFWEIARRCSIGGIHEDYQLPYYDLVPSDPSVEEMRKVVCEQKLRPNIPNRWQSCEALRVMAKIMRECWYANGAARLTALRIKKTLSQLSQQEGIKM
Method in brief: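 Read-out was LANCE Ultra TR-FRET with a europium anti-phospho-Topo IIα Thr1342 antibody after EDTA quench. Kinase reaction ran 60 min at 37 °C with ATP added from a 125 μM 5× stock, after 60 min compound–enzyme equilibration at room temperature. Values are pKi from Cheng-Prusoff conversion of fitted pIC50.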

| SMILES | Ki [2] | IC50 [1] |
| --- | --- | --- |
| Cc1cccc(-c2nc(CC(=O)NCCO)cc(Nc3ccnc(Nc4ccc(N5CCNCC5)cc4)n3)n2)n1 [Compound 498, N-(2-hydroxyethyl)-2-[2-(6-methyl-2-pyridyl)-6-[[2-(4-piperazin-1-ylanilino)pyrimidin-4-yl]amino]pyrimidin-4-yl]acetamide] | 0.398 to 3.16 nM | 200 to 1260 nM |
| Cc1cccc(-c2nccc(Nc3ccnc(Nc4csc(N)c4)n3)n2)n1 [Compound 500, N2-(5-amino-3-thienyl)-N4-[2-(6-methyl-2-pyridyl)pyrimidin-4-yl]pyrimidine-2,4-diamine] | 0.398 to 3.16 nM | 25.1 to 158 nM |
| Cc1cccc(-c2nccc(Nc3ccnc(Nc4ccc(N5CCOCC5)cc4F)n3)n2)n1 [Compound 502, N2-(2-fluoro-4-morpholino-phenyl)-N4-[2-(6-methyl-2-pyridyl)pyrimidin-4-yl]pyrimidine-2,4-diamine] | 3.98 to 31.6 nM | 25.1 to 158 nM |
| Cc1cccc(-c2nccc(Nc3ccnc(Nc4cccc(C(=O)N5CCNCC5)c4)n3)n2)n1 [Compound 505, [3-[[4-[[2-(6-methyl-2-pyridyl)pyrimidin-4-yl]amino]pyrimidin-2-yl]amino]phenyl]-piperazin-1-yl-methanone] | 0.398 to 3.16 nM | 25.1 to 158 nM |
| Cc1cccc(-c2nccc(Nc3ccnc(Nc4nc(CN5CCC[C@@H](C(=O)O[C@H]6CCN(C)C6)C5)cs4)n3)n2)n1 [Compound 508, (S)-1-methylpyrrolidin-3-yl (R)-1-((2-((4-((2-(6-methylpyridin-2-yl)pyrimidin-4-yl)amino)pyrimidin-2-yl)amino)thiazol-4-yl)methyl)piperidine-3-carboxylate] | 0.398 to 3.16 nM | 25.1 to 158 nM |
| COc1cc(Nc2nccc(Nc3ccnc(-c4cccc(C)n4)n3)n2)ccc1NC(=O)C1CCNCC1 [Compound 511, N-[2-methoxy-4-[[4-[[2-(6-methyl-2-pyridyl)pyrimidin-4-yl]amino]pyrimidin-2-yl]amino]phenyl]piperidine-4-carboxamide] | 0.398 to 3.16 nM | 25.1 to 158 nM |
| Cc1cccc(-c2nccc(Nc3ccnc(Nc4ccc5[nH]nnc5c4)n3)n2)n1 [Compound 512, N2-(1H-benzotriazol-5-yl)-N4-[2-(6-methyl-2-pyridyl)pyrimidin-4-yl]pyrimidine-2,4-diamine] | 0.398 to 3.16 nM | 25.1 to 158 nM |
| Cc1cccc(-c2nccc(Nc3ccnc(Nc4ccc(COCCO)cc4)n3)n2)n1 [Compound 513, 2-[[4-[[4-[[2-(6-methyl-2-pyridyl)pyrimidin-4-yl]amino]pyrimidin-2-yl]amino]phenyl]methoxy] ethanol] | 0.398 to 3.16 nM | 25.1 to 158 nM |
| Cc1cccc(-c2nccc(Nc3ccnc(Nc4ccc(N)c(C)c4)n3)n2)n1 [Compound 514, N2-(4-amino-3-methyl-phenyl)-N4-[2-(6-methyl-2-pyridyl)pyrimidin-4-yl]pyrimidine-2,4-diamine] | 0.398 to 3.16 nM | ≤ 20 nM |
| COC(=O)CCc1ccc(Nc2nccc(Nc3ccnc(-c4cccc(C)n4)n3)n2)cc1 [Compound 517, methyl 3-[4-[[4-[[2-(6-methyl-2-pyridyl)pyrimidin-4-yl]amino]pyrimidin-2-yl]amino]phenyl]propanoate] | 0.398 to 3.16 nM | 200 to 1260 nM |
| Cc1cccc(-c2nccc(Nc3ccnc(Nc4nc(C(=O)NC5(CO)CCNC5)cs4)n3)n2)n1 (stereo not shown) [Compound 520, N-[3-(hydroxymethyl)pyrrolidin-3-yl]-2-[[4-[[2-(6-methyl-2-pyridyl)pyrimidin-4-yl]amino]pyrimidin-2-yl]amino]thiazole-4-carboxamide] | 0.0398 to 0.316 nM | 25.1 to 158 nM |
| Cc1cccc(-c2nccc(Nc3ccnc(Nc4cccc(CN5CCN(C)CC5)c4)n3)n2)n1 [Compound 521, N2-[3-[(4-methylpiperazin-1-yl)methyl]phenyl]-N4-[2-(6-methyl-2-pyridyl)pyrimidin-4-yl]pyrimidine-2,4-diamine] | 0.0398 to 0.316 nM | 25.1 to 158 nM |
| Cc1cccc(-c2nccc(Nc3ccnc(Nc4cc(C(=O)O[C@@H]5CCN(C)C5)cs4)n3)n2)n1 [Compound 522, [(3R)-1-methylpyrrolidin-3-yl] 5-[[4-[[2-(6-methyl-2-pyridyl)pyrimidin-4-yl]amino]pyrimidin-2-yl]amino]thiophene-3-carboxylate] | 0.0398 to 0.316 nM | 25.1 to 158 nM |
| Cc1cccc(-c2nccc(Nc3ccnc(Nc4ccc(CN5CCNC(C(=O)OCC(C)C)C5)cc4)n3)n2)n1 (stereo not shown) [Compound 523, isobutyl 4-[[4-[[4-[[2-(6-methyl-2-pyridyl)pyrimidin-4-yl]amino]pyrimidin-2-yl]amino]phenyl]methyl] piperazine-2-carboxylate] | 0.0398 to 0.316 nM | ≤ 20 nM |

Second part, led by results:

| Ki [2] | SMILES | IC50 [1] |
| --- | --- | --- |
| 0.0398 to 0.316 nM | Cc1cccc(-c2nccc(Nc3ccnc(Nc4cccc(N(C)C(=O)C5CCNCC5)c4)n3)n2)n1 [Compound 497, N-methyl-N-[3-[[4-[[2-(6-methyl-2-pyridyl)pyrimidin-4-yl]amino]pyrimidin-2-yl]amino]phenyl]piperidine-4-carboxamide] | 200 to 1260 nM |
| 0.0398 to 0.316 nM | Cc1cccc(-c2nccc(Nc3ccnc(Nc4ccc(N5CCNCC5)c(CC(=O)O[C@@H]5CCN(C)C5)c4)n3)n2)n1 [Compound 499, [(3R)-1-methylpyrrolidin-3-yl] 2-[5-[[4-[[2-(6-methyl-2-pyridyl)pyrimidin-4-yl]amino]pyrimidin-2-yl]amino]-2-piperazin-1-yl-phenyl]acetate] | 200 to 1260 nM |
| 0.0398 to 0.316 nM | Cc1cccc(-c2nccc(Nc3ccnc(Nc4ccc(CN5CC(N(C)C)C5)cc4)n3)n2)n1 [Compound 501, N2-[4-[[3-(dimethylamino)azetidin-1-yl]methyl]phenyl]-N4-[2-(6-methyl-2-pyridyl)pyrimidin-4-yl]pyrimidine-2,4-diamine] | 25.1 to 158 nM |
| ≤ 0.0316 nM | CNCc1ccc(Nc2nccc(Nc3ccnc(-c4cccc(C)n4)n3)n2)cc1 [Compound 503, N2-[4-(methylaminomethyl)phenyl]-N4-[2-(6-methyl-2-pyridyl)pyrimidin-4-yl]pyrimidine-2,4-diamine] | 25.1 to 158 nM |
| 0.0398 to 0.316 nM | Cc1cccc(-c2nccc(Nc3ccnc(Nc4csc(C(=O)O[C@@H]5CCN(C)C5)c4)n3)n2)n1 [Compound 504, [(3R)-1-methylpyrrolidin-3-yl] 4-[[4-[[2-(6-methyl-2-pyridyl)pyrimidin-4-yl]amino]pyrimidin-2-yl]amino]thiophene-2-carboxylate] | 25.1 to 158 nM |
| 0.0398 to 0.316 nM | Cc1cccc(-c2nccc(Nc3ccnc(Nc4ccc(C(=O)O[C@H]5CCN(C)C5)s4)n3)n2)n1 [Compound 507, [(3S)-1-methylpyrrolidin-3-yl] 5-[[4-[[2-(6-methyl-2-pyridyl)pyrimidin-4-yl]amino]pyrimidin-2-yl]amino]thiophene-2-carboxylate] | 25.1 to 158 nM |
| 0.0398 to 0.316 nM | Cc1cccc(-c2nccc(Nc3ccnc(Nc4cccc(NC(=O)N5CCN(C)CC5)c4)n3)n2)n1 [Compound 509, 4-methyl-N-[3-[[4-[[2-(6-methyl-2-pyridyl)pyrimidin-4-yl]amino]pyrimidin-2-yl]amino]phenyl]piperazine-1-carboxamide] | 25.1 to 158 nM |
| 0.0398 to 0.316 nM | Cc1cccc(-c2nccc(Nc3ccnc(Nc4nc(C(=O)N5CCNCC5)cs4)n3)n2)n1 [Compound 510, [2-[[4-[[2-(6-methyl-2-pyridyl)pyrimidin-4-yl]amino]pyrimidin-2-yl]amino]thiazol-4-yl]-piperazin-1-yl-methanone] | 25.1 to 158 nM |
| 0.0398 to 0.316 nM | Cc1cccc(-c2nccc(Nc3ccnc(Nc4ccc(N5CCNCC5)c(C)c4)n3)n2)n1 [Compound 515, N2-(3-methyl-4-piperazin-1-yl-phenyl)-N4-[2-(6-methyl-2-pyridyl)pyrimidin-4-yl]pyrimidine-2,4-diamine] | 25.1 to 158 nM |
| 0.0398 to 0.316 nM | COC(=O)C1CCCN(Cc2ccc(Nc3nccc(Nc4ccnc(-c5cccc(C)n5)n4)n3)cc2)C1 (stereo not shown) [Compound 516, methyl 1-[[4-[[4-[[2-(6-methyl-2-pyridyl)pyrimidin-4-yl]amino]pyrimidin-2-yl]amino]phenyl]methyl] piperidine-3-carboxylate] | 25.1 to 158 nM |
| 0.0398 to 0.316 nM | Cc1cccc(-c2nccc(Nc3ccnc(Nc4ccc(CN5CCC(C(=O)OCC6CNC6)C5)cc4)n3)n2)n1 (stereo not shown) [Compound 518, azetidin-3-ylmethyl 1-[[4-[[4-[[2-(6-methyl-2-pyridyl)pyrimidin-4-yl]amino]pyrimidin-2-yl]amino]phenyl]methyl] pyrrolidine-3-carboxylate] | 25.1 to 158 nM |
| 0.0398 to 0.316 nM | Cc1cccc(-c2nccc(Nc3ccnc(Nc4cccc(CN5C[C@@H](C)N[C@@H](C)C5)c4)n3)n2)n1 [Compound 519, N4-[2-(6-methyl-2-pyridyl)pyrimidin-4-yl]-N2-[3-[[rac-(3R,5S)-3,5-dimethylpiperazin-1-yl]methyl]phenyl]pyrimidine-2,4-diamine] | 25.1 to 158 nM |

— US20230399312A1, “SUBSTITUTED PYRIMIDINES AND METHODS OF USE” (THERAVANCE BIOPHARMA R&D IP, LLC, priority 2020, published 2023)
